Experimental findings from patent US11389455B2, “Inhibitors of HIV-1 integrase multimerization” (Institute for Cancer Research, priority 2017, dated 2022) are described below.

Like-named read-outs stand apart in the source and are kept apart here.

For data set [1], the target named is T1, HIV IN (Wild-type monomer) (Human immunodeficiency virus type 1 group M subtype B, UniProt P04585).
T1 construct: 1 uM HIV IN (Wild-type monomer)
Type of data set: biochemical, HIV-1. To be noted: for I.I.(K Counts) CI/SI: ratio concerted/single end integration counts.

In data set [2] the test system is HeLa cells.
Data set [3] deals with T2, Avian Sarcoma Virus integrase (UniProt P03354).
T2 sequence (P03354 1281-1567): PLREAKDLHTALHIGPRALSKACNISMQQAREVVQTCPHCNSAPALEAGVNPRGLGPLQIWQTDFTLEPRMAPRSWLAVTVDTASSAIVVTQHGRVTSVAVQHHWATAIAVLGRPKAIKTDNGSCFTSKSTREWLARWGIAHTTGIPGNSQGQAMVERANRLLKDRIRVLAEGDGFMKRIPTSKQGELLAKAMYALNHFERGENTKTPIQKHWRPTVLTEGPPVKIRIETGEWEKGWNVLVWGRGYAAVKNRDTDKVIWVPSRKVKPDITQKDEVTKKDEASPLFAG
Nature of the data set: Specificity: single end and concerted integration in vitro, ASV integrase. Type of data set: biochemical. The settings on record: Table 6.

For data set [4], the target named is Prototype Foamy Virus (PFV) integrase (Human spumaretrovirus, UniProt P14350). Nature of the data set: Specificity: single end and concerted integration in vitro, PFV integrase. Type of data set: biochemical. The settings on record: Table 6.
The test system of data set [5] is HeLa cells. Briefly: Cell toxicity during the infection experiment (Tox/Infect), 24 hours exposure. To be noted: only 24 hours of exposure.
Data set [6] concerns Envelope pseudotyped virus particles infecting HeLa cells. Nature of the data set: Inhibition of infectivity, single round GFP reporter virus, percent GFP positive cells. The settings on record: read-out: Infectivity EC50.
[7] abbreviates: Table 1, cross validation assay at compound concentration of 10 uM.
Setting [8] is: HeLa cells, compound exposure for 3 days, preliminary.
[9] abbreviates: Table 5, concerted integration, read-out: Concerted IC50.
Setting [10] is: Table 5, single-end integration, read-out: Single End IC50.
Setting [11] is: Table 6, read-out: HIV Concerted IC50.
Where [12] appears, read: Table 6, read-out: HIV Single End IC50.

Consider `CCn1nc(-c2ccc(C(F)(F)F)cc2)nc2c(=O)n(C)c(=O)nc1-2` [Formula I-5], for which the “Relative % concerted integration” value in data set [1] (setting [7]) was 0.72%.

Consider `Cn1nc(-c2ccc([N+](=O)[O-])cc2)nc2c(=O)n(C)c(=O)nc1-2` [Formula I-12], for which, in data set [1] (setting [7]), the “Relative % concerted integration” value was found to be 3.26%.

`O=C(O)CCCCCNc1ccc([N+](=O)[O-])c2nonc12` [II-2]: the IC50 in data set [1] (Concerted IC50) was 500 µM; in data set [1] (Single End IC50) it was over 1000 µM. Further, the “Toxicity LD50” value in data set [2] (setting [8]) was over 50 µM.

As for `CCn1nc(-c2cc(Br)ccc2F)nc2c(=O)n(C)c(=O)nc1-2` [Formula I-4], in data set [1] (setting [7]), the “Relative % concerted integration” value stood at 0.26%.

`CCCc1nc2c(=O)n(C)c(=O)nc-2n(C)n1` [Formula I-7]: the “Relative % concerted integration” value in data set [1] (setting [7]) was found to be 0.07%.

Turning to `Cn1nc(-c2ccc(F)cc2)nc2c(=O)n(C)c(=O)nc1-2` [Formula I-8], the “Relative % concerted integration” value in data set [1] (setting [7]) came out at 0.42%.

For the molecule `CCn1nc(-c2cc(Br)cs2)nc2c(=O)n(C)c(=O)nc1-2` [Formula I-6], the “Relative % concerted integration” value in data set [1] (setting [7]) turned out to be 1.72%.

In the case of `Cc1nnc(C(=O)NC(C)(C)c2nc(C(=O)NCc3ccc(F)cc3)c(O)c(=O)n2C)o1` [RAL, Raltegravir, reference compound], the IC50 in data set [3] (read-out: ASV Concerted IC50) is 0.6 µM; in data set [3] (read-out: ASV Single End IC50), 22 µM; in data set [4] (read-out: PFV Concerted IC50), 1 µM; in data set [4] (read-out: PFV Single End IC50), under 10 µM. Also, in data set [2] (setting [8]), the “Toxicity LD50” value was over 20 µM. Further, the “Tox/Infect LD50” value in data set [5] was over 10 µM. Moreover, the EC50 in data set [6] turned out to be 0.05 µM.

Take `Cn1nc(-c2ccccc2)nc2c(=O)n(C)c(=O)nc1-2` [Formula I-9]: the “Relative % concerted integration” value in data set [1] (setting [7]) came to 2.73%.

For the molecule `CCn1nc(-c2ccccn2)nc2c(=O)n(C)c(=O)nc1-2` [Formula I-2], the “Relative % concerted integration” value in data set [1] (setting [7]) came to 6.33%.

For `Cn1nc(-c2ccc(C(F)(F)F)cc2)nc2c(=O)n(C)c(=O)nc1-2` [Formula I-10], the “Relative % concerted integration” value in data set [1] (setting [7]) stood at 1.56%.

As to `Cn1ncnc2c(=O)n(C)c(=O)nc1-2` [Formula I-1], in data set [1] (setting [7]), the “Relative % concerted integration” value stood at 3.84%. In addition, the IC50 was 0.2 µM in data set [1] (Table 1, read-out: IC50 (concerted integration)); 0.2 µM in data set [1] (setting [9]); 1.25 µM in data set [1] (setting [10]); 0.2 µM in data set [1] (setting [11]); 1.25 µM in data set [1] (setting [12]); over 100 µM in data set [3] (read-out: ASV Concerted IC50). In addition, the IC50 in data set [3] (read-out: ASV Single End IC50) is over 100 µM; in data set [4] (read-out: PFV Concerted IC50), over 1000 µM; in data set [4] (read-out: PFV Single End IC50) it was over 1000 µM. Further, in data set [1] (Table 4, Form F3 (concerted integration), 0.001 uM, read-out: Rel % Activity), the activity at 0.001 µM is 99.6%. Further, the activity at 0.005 µM in data set [1] (Table 4, Form F3 (concerted integration), 0.005 uM, read-out: Rel % Activity) amounted to 83.8%; in data set [1] (read-out: Rel % Activity), 106%. Besides, the activity at 0.01 µM in data set [1] (Table 4, Form F3 (concerted integration), 0.01 uM, read-out: Rel % Activity) is 92.4%. Moreover, the activity at 0.05 µM in data set [1] (Table 4, Form F3 (concerted integration), 0.05 uM, read-out: Rel % Activity) was found to be 78.2%. Besides, the activity at 0.1 µM in data set [1] (Table 4, Form F3 (concerted integration), 0.1 uM, read-out: Rel % Activity) came to 75.3%. For the same molecule, the activity at 0.5 µM in data set [1] (Table 4, Form F3 (concerted integration), 0.5 uM, read-out: Rel % Activity) came to 17.4%. In addition, the activity at 1 µM in data set [1] (Table 4, Form F3 (concerted integration), 1 uM, read-out: Rel % Activity) was 6.42%. Also, the activity at 5 µM in data set [1] (Table 4, Form F3 (concerted integration), 5 uM, read-out: Rel % Activity) worked out at 0.705%. Further, the activity at 10 µM in data set [1] (Table 4, Form F3 (concerted integration), 10 uM, read-out: Rel % Activity) is 0.419%. The activity at 50 µM in data set [1] (Table 4, Form F3 (concerted integration), 50 uM, read-out: Rel % Activity) is 0.366%. Besides, the activity at 100 µM in data set [1] (Table 4, Form F3 (concerted integration), 100 uM, read-out: Rel % Activity) came out at 0.453%. For the same molecule, the activity at 500 µM in data set [1] (Table 4, Form F3 (concerted integration), 500 uM, read-out: Rel % Activity) amounted to 0.433%. For the same molecule, the activity at 1000 µM in data set [1] (Table 4, Form F3 (concerted integration), 1000 uM, read-out: Rel % Activity) amounted to 1.34%. The “I.I.(K Counts) CI/SI” value in data set [1] (0.001 uM) worked out at 1.336; in data set [1] (0.005 uM), 1.067; in data set [1] (0.01 uM), 1.193; in data set [1] (0.05 uM), 1.007; in data set [1] (0.1 uM) it was 0.978; in data set [1] (0.5 uM) it was 0.331. In addition, the “I.I.(K Counts) CI/SI” value was 0.159 in data set [1] (1 uM); 0.034 in data set [1] (5 uM); 0.022 in data set [1] (10 uM); 0.020 in data set [1] (50 uM); 0.026 in data set [1] (100 uM); 0.033 in data set [1] (500 uM). The “I.I.(K Counts) CI/SI” value in data set [1] (1000 uM) was 0.107. The “Toxicity LD50” value in data set [2] (setting [8]) is 0.43 µM. In addition, the “Tox/Infect LD50” value in data set [5] is over 5 µM. Moreover, the EC50 in data set [6] was 0.3 µM.

In the case of `Cn1nc(/C=C\c2ccccc2)nc2c(=O)n(C)c(=O)nc1-2` [Formula I-11], in data set [1] (setting [7]), the “Relative % concerted integration” value stood at 1.76%.

`O=C(CCCCCNc1ccc([N+](=O)[O-])c2nonc12)ON1C(=O)CCC1=O` [II-4]: the IC50 came out at 16 µM in data set [1] (setting [9]); 71 µM in data set [1] (setting [10]); 16 µM in data set [1] (setting [11]); 65 µM in data set [1] (setting [12]); 53 µM in data set [3] (read-out: ASV Concerted IC50); 175 µM in data set [3] (read-out: ASV Single End IC50). The IC50 in data set [4] (read-out: PFV Concerted IC50) was over 390 µM; in data set [4] (read-out: PFV Single End IC50), over 350 µM. In addition, the “Toxicity LD50” value in data set [2] (setting [8]) was over 50 µM. Moreover, the “Tox/Infect LD50” value in data set [5] is over 20 µM. Also, the EC50 in data set [6] was 5 µM.

With `Nc1ccc(N2CCCCC2)c2nonc12` [II-3], the IC50 in data set [1] (Concerted IC50) is 15 µM; in data set [1] (Single End IC50) it was over 1000 µM. Besides, the “Toxicity LD50” value in data set [2] (human, 3 days) stood at 25 µM.

Turning to `CCn1nc(-c2cccs2)nc2c(=O)n(C)c(=O)nc1-2` [Formula I-3], the “Relative % concerted integration” value in data set [1] (setting [7]) worked out at 2.07%.

As to `CCc1ccc(-c2nc3c(=O)n(C)c(=O)nc-3n(CC)n2)cc1` [Formula I-13], the “Relative % concerted integration” value in data set [1] is reported as 7.07% (IC50 of 0.27 μM). Further, the values for the IC50 in data set [1] (Concerted IC50), in data set [1] (IC50 (concerted integration)) and in data set [1] (Single End IC50) were 0.27 µM, 0.27 µM and 1.4 µM, respectively. Besides, the “Toxicity LD50” value in data set [2] (human, 3 days) was 3.2 µM.

A word on the EC50: it is the concentration that produces a half-maximal response.
